Source: publication PMC8958504 (Journal of Medicinal Chemistry, 2022)
Where two headings read alike, the source gives them in different places.

Legend:
hMAO-A = target: T1, hMAO-A (Homo sapiens, UniProt P21397); test: biochemical; details: for IC50: read-out: hMAO-A (IC50), recombinant hMAO-A, p-tyramine substrate
T1 sequence (P21397 1-527): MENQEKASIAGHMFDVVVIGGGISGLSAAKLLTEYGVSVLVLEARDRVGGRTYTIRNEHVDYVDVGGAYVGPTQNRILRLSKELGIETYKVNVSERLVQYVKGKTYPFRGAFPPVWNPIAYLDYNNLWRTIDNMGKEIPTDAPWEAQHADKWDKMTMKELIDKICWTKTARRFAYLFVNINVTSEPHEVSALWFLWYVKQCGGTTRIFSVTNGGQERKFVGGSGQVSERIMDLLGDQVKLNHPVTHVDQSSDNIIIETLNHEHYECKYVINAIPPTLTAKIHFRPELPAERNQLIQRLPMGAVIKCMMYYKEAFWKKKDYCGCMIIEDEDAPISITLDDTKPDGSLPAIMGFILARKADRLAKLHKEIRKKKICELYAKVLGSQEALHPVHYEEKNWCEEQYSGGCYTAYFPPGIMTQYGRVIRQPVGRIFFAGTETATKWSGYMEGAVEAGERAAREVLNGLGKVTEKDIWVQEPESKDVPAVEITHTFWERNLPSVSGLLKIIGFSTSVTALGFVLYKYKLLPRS
Method: (§1) The hMAO-A/B inhibition of all compounds was determined using the Amplex Red MAO assay kit.
(§2) Assays were performed following the general procedure previously described.[98] […] The specific fluorescence emission was calculated after subtracting the background activity, which was determined from wells containing all components except the hMAO isoforms, which were replaced with PBS.

hMAO-B = target: T2, hMAO-B (Homo sapiens, UniProt P27338); test: biochemical; details: for IC50: read-out: hMAO-B (IC50), recombinant hMAO-B, p-tyramine substrate; for inhibition at 50 µM: read-out: hMAO-B percentage of inhibition (in brackets)
T2 sequence (P27338 1-520): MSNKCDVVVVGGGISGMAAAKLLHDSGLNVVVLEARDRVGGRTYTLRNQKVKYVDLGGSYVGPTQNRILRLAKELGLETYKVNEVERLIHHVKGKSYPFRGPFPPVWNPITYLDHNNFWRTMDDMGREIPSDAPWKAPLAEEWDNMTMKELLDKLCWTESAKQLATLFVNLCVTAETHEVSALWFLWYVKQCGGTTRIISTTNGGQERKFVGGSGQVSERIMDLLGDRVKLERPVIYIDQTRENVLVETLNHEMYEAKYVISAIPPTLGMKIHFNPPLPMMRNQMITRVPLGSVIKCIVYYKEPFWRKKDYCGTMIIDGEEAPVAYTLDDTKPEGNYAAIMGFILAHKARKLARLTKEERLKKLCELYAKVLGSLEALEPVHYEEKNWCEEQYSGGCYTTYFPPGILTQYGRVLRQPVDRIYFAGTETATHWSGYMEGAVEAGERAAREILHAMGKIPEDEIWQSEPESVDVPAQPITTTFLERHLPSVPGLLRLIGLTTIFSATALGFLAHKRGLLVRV
Method: as §1, §2

in vitro = in vitro ADME; details: for Papp at 240 min, 100 μg mL^–1: PAMPA; for PAMPA-BBB (Pe, 10^–6 cm s^–1): porcine brain lipid
[1] = tested on: NRF2-ARE signaling pathway; test: cells; assay type: cell-based; details: for EC (2-fold induction): Arec32, 24 h, read-out: NRF2 (CD, μM), concentration required to double luciferase activity, AREc32 cells, 24 h; for NRF2 (CD, μM): concentration required to double luciferase activity, AREc32 cells, 24 h
Method: AREc32 cells were plated in 96-well white plates (2 × 10^4 cells/well). […]. The AREc32 cells constitutively express the plasmid pGL-8xARE that implements eight copies of the EpRE sequences, followed by the luciferase reporter gene. Therefore, NRF2 induction is related to the activation of EpRE sequences, expressing luciferase at the same extent as EpRE sequences are activated. The Luciferase Assay System (Promega E1500) was used according to the provider’s protocol, and luminescence was quantified in an Orion II microplate luminometer (Berthold, Germany). Fold induction of luciferase activity was normalized to basal conditions. Data are expressed as CD values, expressing the concentration required to double the luciferase activity. CD values were calculated from dose–response curves generated from the fold induction of control conditions versus inducer concentration and fitted by nonlinear regression and data interpolated to twofold induction concentration.[68]

[2] = Oxygen radical absorbance capacity (ORAC-FL) assay; details: trolox = 1.0
Method: 2,2′-Azobis-(amidinopropane) dihydrochloride (AAPH), trolox, and fluorescein (FL) were purchased from Sigma-Aldrich. The reaction was carried out in a 75 mM phosphate buffer (pH 7.4), and the final reaction mixture was 200 μL. […] Antioxidant curves (fluorescence vs time) were first normalized to the curve of the blank corresponding to the same assay, and the area under the curve (AUC) of fluorescence decay was calculated. The net AUC corresponding to a sample was calculated by subtracting the AUC corresponding to the blank. Regression equations between the net AUC and antioxidant concentration were calculated for all the samples.

QR2 = target: T3, QR2 (Mesocricetus auratus, UniProt A0ABM2YAB8); test: biochemical
T3 sequence (A0ABM2YAB8 1-231): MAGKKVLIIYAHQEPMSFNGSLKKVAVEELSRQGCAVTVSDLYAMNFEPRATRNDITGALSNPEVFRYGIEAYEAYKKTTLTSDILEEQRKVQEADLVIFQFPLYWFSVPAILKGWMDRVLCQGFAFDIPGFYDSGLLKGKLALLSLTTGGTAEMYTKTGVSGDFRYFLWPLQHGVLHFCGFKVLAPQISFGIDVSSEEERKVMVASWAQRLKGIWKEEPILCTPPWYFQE
Method: The QR2 experiments were performed in membrane homogenates of hamster brains (https://www.eurofins.fr, catalog ref. 0088). […] First, radioligand displacement was measured at a fixed compound concentration (10 μM) in each receptor.

[3] = pH 7.4, class from PAMPA-BBB Pe, read-out: CNS-permeability prediction
[4] = PBS/EtOH (70:30), 240 min, 25 °C

Compound | IC50 (hMAO-A) | IC50 (hMAO-B) | inhibition at 50 µM (hMAO-B) | Papp at 240 min, 100 μg mL^–1 (in vitro; [3]) | PAMPA-BBB (Pe, 10^–6 cm s^–1) (in vitro; [4]) | EC (2-fold induction) [1] | NRF2 (CD, μM) [1] | ORAC (trolox equiv) [2] | IC50 (QR2) | inhibition at 10 µM (QR2; read-out: QR2 percentage of inhibition (in brackets)) | inhibition at 50 µM (hMAO-A; read-out: hMAO-A percentage of inhibition (in brackets)) | Papp at 240 min, 100 μg mL^–1 (in vitro; pH 7.4, porcine brain lipid, PBS/EtOH (70:30), 240 min, 25 °C, read-out: PAMPA-BBB) | Papp at 240 min, 100 μg mL^–1 (in vitro; pH 7.4, PAMPA standards, mean ± SD of three experiments, read-out: Permeability Pe, Exp)
N#Cc1cccc(/C=C/c2n[nH]c(=O)o2)c1 [2b, 3-[(E)-2-(5-Oxo-4,5-dihydro-1,3,4-oxadiazol-2-yl)ethenyl]benzonitrile] | > 50 µM | > 50 µM | 38% | > 4 ×10⁻⁶ cm/s | 4.5 ± 0.3 10^–6 cm s^–1 | 13.7 µM | 13.7 ± 2.2 µM | <0.1 trolox equiv |  |  |  |  | 
COc1ccc(/C=C/c2n[nH]c(=O)o2)cc1 [2e, 5-[(E)-2-(4-Methoxyphenyl)ethenyl]-1,3,4-oxadiazol-2(3H)-one] | > 50 µM | > 50 µM | 42% | > 4 ×10⁻⁶ cm/s | 6.5 ± 0.5 10^–6 cm s^–1 | > 60 µM |  | <0.1 trolox equiv | ~10 µM | 68% |  |  | 
COc1ccc(/C=C/c2n[nH]c(=O)o2)c(OC)c1 [2f, 5-[(E)-2-(2,4-Dimethoxyphenyl)ethenyl]-1,3,4-oxadiazol-2(3H)-one] | > 50 µM | > 50 µM |  | 2 to 4 ×10⁻⁶ cm/s | 3.6 ± 0.2 10^–6 cm s^–1 |  |  | 0.6 ± 0.08 trolox equiv |  |  |  |  | 
COc1ccc(OC)c(/C=C/c2n[nH]c(=O)o2)c1 [2g, 5-[(E)-2-(2,5-Dimethoxyphenyl)ethenyl]-1,3,4-oxadiazol-2(3H)-one] | > 50 µM | > 50 µM |  | 2 to 4 ×10⁻⁶ cm/s | 3.0 ± 0.2 10^–6 cm s^–1 |  |  | <0.1 trolox equiv |  |  |  |  | 
COc1ccc(/C=C/c2n[nH]c(=O)o2)cc1OC [2h, 5-[(E)-2-(3,4-Dimethoxyphenyl)ethenyl]-1,3,4-oxadiazol-2(3H)-one] | > 50 µM | > 50 µM |  | 2 to 4 ×10⁻⁶ cm/s | 2.4 ± 0.3 10^–6 cm s^–1 | > 60 µM |  | <0.1 trolox equiv |  |  |  |  | 
O=c1[nH]nc(/C=C/c2ccc3c(c2)OCO3)o1 [2i, 5-[(E)-2-(2H-1,3-Benzodioxol-5-yl)ethenyl]-1,3,4-oxadiazol-2(3H)-one] | > 50 µM | 27.6 ± 0.9 µM |  | 2 to 4 ×10⁻⁶ cm/s | 3.8 ± 0.2 10^–6 cm s^–1 |  |  | <0.1 trolox equiv |  |  |  |  | 
COc1cc(/C=C/c2n[nH]c(=O)o2)cc(OC)c1 [2j, 5-[(E)-2-(3,5-Dimethoxyphenyl)ethenyl]-1,3,4-oxadiazol-2(3H)-one] | > 50 µM | > 50 µM |  | 2 to 4 ×10⁻⁶ cm/s | 2.1 ± 0.2 10^–6 cm s^–1 |  |  | <0.1 trolox equiv | 0.51 ± 0.05 µM |  |  |  | 
COc1cc(/C=C/c2n[nH]c(=O)o2)cc(OC)c1OC [2k, 5-[(E)-2-(3,4,5-Trimethoxyphenyl)ethenyl]-1,3,4-oxadiazol-2(3H)-one] | > 50 µM | > 50 µM |  | < 2 ×10⁻⁶ cm/s | ≤ 0.5 10^–6 cm s^–1 |  |  | <0.1 trolox equiv |  |  |  |  | 
O=c1[nH]nc(/C=C/c2ccc(O)c(O)c2)o1 [3o, 5-[(E)-2-(3,4-Dihydroxyphenyl)ethenyl]-1,3,4-oxadiazol-2(3H)-one] | 3.4 ± 0.2 µM | 5.8 ± 0.4 µM |  | < 2 ×10⁻⁶ cm/s | ≤ 0.2 10^–6 cm s^–1 |  | 21.3 ± 1.6 µM | 1.7 ± 0.1 trolox equiv |  |  |  |  | 
O=c1[nH]nc(/C=C/c2cc(O)cc(O)c2)o1 [3p, 5-[(E)-2-(3,5-Dihydroxyphenyl)ethenyl]-1,3,4-oxadiazol-2(3H)-one] | > 50 µM | > 50 µM |  | < 2 ×10⁻⁶ cm/s | ≤ 0.1 10^–6 cm s^–1 | > 60 µM |  | 1.9 ± 0.1 trolox equiv |  |  |  |  | 
C#CCNC(=O)/C=C/c1cccc(C#N)c1 [6b, (2E)-3-(3-Cyanophenyl)-N-(prop-2-yn-1-yl)prop-2-enamide] | > 50 µM | > 50 µM |  |  |  | > 60 µM |  | <0.1 trolox equiv |  |  |  |  | 
C#CCNC(=O)/C=C/c1ccc(OC)cc1 [6e, (2E)-3-(4-Methoxyphenyl)-N-(prop-2-yn-1-yl)prop-2-enamide] | > 50 µM | > 50 µM |  |  |  |  |  | <0.1 trolox equiv |  |  |  |  | 
C#CCNC(=O)/C=C/c1cccc(O)c1 [6l, (2E)-3-(3-Hydroxyphenyl)-N-(prop-2-yn-1-yl)prop-2-enamide] | > 50 µM | > 50 µM |  |  |  |  |  | 3.0 ± 0.3 trolox equiv |  |  |  |  | 
C#CCNC(=O)/C=C/c1ccc(O)cc1 [6m, (2E)-3-(4-Hydroxyphenyl)-N-(prop-2-yn-1-yl)prop-2-enamide] | > 50 µM | 31.1 ± 1.57 µM |  |  |  |  |  | 3.0 ± 0.2 trolox equiv |  |  |  |  | 
C#CCNC(=O)/C=C/c1ccc(O)c(OC)c1 [6n, (2E)-3-(4-Hydroxy-3-methoxyphenyl)-N-(prop-2-yn-1-yl)prop-2-enamide] | > 50 µM | > 50 µM | 33% | < 2 ×10⁻⁶ cm/s | ≤ 0.5 10^–6 cm s^–1 | > 60 µM | >60 µM | 0.5 ± 0.03 trolox equiv |  |  | 33% | < 2 ×10⁻⁶ cm/s | 
C[C@]12CCC(=O)C=C1CC[C@@H]1[C@@H]2[C@@H](O)C[C@]2(C=O)[C@@H](C(=O)CO)CC[C@@H]12 [Aldosterone, reference compound] |  |  |  |  |  |  |  |  |  |  |  |  | 3.1 ± 0.2 ×10⁻⁶ cm/s
COc1ccc2[nH]cc(CCNC(C)=O)c2c1 [melatonin, reference compound] |  |  |  |  |  |  |  |  | 0.077 ± 0.001 µM |  |  |  | 
C[S+]([O-])CCCCN=C=S (stereo not shown) [sulforaphane, reference compound] |  |  |  |  |  | 1.24 µM | 1.24 ± 0.28 µM |  |  |  |  |  | 
